Reference: ChEMBL document CHEMBL1139785, “Synthesis of novel HIV protease inhibitors (PI) with activity against PI-resistant virus” (Bioorg Med Chem Lett, 2007)
pIC50: −log10 of the molar value.

Key:
Protease = Protease (Human immunodeficiency virus 1, UniProt Q9YQ12); experiment: Inhibition of wild type HIV1 NL4-3 protease
[1] = system: Human immunodeficiency virus 1; experiment: Antiviral activity against HIV1 NL4-3 in MT4 cells by viral spread assay; format: functional; conditions: Human immunodeficiency virus 1, NL4-3, MT4; read-out: CIC95
[2] = system: Human immunodeficiency virus 1; experiment: Antiviral activity against HIV1 with protease V18C mutant in MT4 cells by viral spread assay; conditions: Human immunodeficiency virus 1, MT4; read-out: CIC95
[3] = system: Human immunodeficiency virus 1; experiment: Antiviral activity against HIV1 with protease K60C mutant in MT4 cells by viral spread assay; conditions: Human immunodeficiency virus 1, MT4; read-out: CIC95
[4] = Inhibition of HIV1 NL4-3 protease V18C mutant; parameters: species or system Human immunodeficiency virus 1
[5] = Inhibition of HIV1 NL4-3 protease K60C mutant; parameters: species or system Human immunodeficiency virus 1

Chain of Protease (Q9YQ12 whole entry): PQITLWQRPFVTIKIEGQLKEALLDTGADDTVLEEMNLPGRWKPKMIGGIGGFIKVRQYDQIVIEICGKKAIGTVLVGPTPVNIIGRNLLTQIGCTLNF

SMILES | pIC50 (Protease) | IC95 [1] [nM] | IC95 [2] [nM] | IC95 [3] [nM] | pIC50 [4] | pIC50 [5]
Cc1cccc(C)c1CNC(=O)[C@@H]1CCN1C(=O)[C@@H](O)C[C@@H](Cc1ccccc1)C(=O)N[C@H]1c2ccccc2OC[C@H]1O | 7.05 | 1000 |  |  |  | 
Cc1cccc(C)c1CNC(=O)[C@@H]1CCCN1C(=O)[C@@H](O)C[C@@H](Cc1ccccc1)C(=O)N[C@H]1c2ccccc2OC[C@H]1O | 7.85 | 1000 |  |  |  | 
Cc1cccc(C)c1CNC(=O)[C@H]1N(C(=O)[C@@H](O)C[C@@H](Cc2ccccc2)C(=O)N[C@H]2c3ccccc3OC[C@H]2O)COC1(C)C | 9.77 | 15 | 62 | 500 | 8.89 | 8.66
Cc1nsc(C)c1CNC(=O)[C@H]1N(C(=O)[C@@H](O)C[C@@H](Cc2ccccc2)C(=O)N[C@H]2c3ccccc3OC[C@H]2O)COC12CCCC2 | 10.00 | 125 | 250 | 250 | 9.10 | 9.40
Cc1cccc(C)c1CNC(=O)[C@H]1N(C(=O)[C@@H](O)C[C@@H](Cc2ccccc2)C(=O)N[C@H]2c3ccccc3OC[C@H]2O)CSC1(C)C | 10.52 | 15 |  |  |  | 
Cc1noc(C)c1CNC(=O)[C@H]1N(C(=O)[C@@H](O)C[C@@H](Cc2ccccc2)C(=O)N[C@H]2c3ccccc3OC[C@H]2O)COC12CCCC2 | 9.70 | 250 | 1000 | 500 | 8.49 | 8.82
O=C(N[C@H]1c2ccccc2OC[C@H]1O)[C@H](Cc1ccccc1)C[C@H](O)C(=O)N1COC2(CCCC2)[C@H]1C(=O)NCc1c(Cl)cccc1Cl | 9.96 | 62.5 | 500 | 250 | 9.00 | 9.30
Cc1cccc(C)c1CNC(=O)[C@@H]1CCCCN1C(=O)[C@@H](O)C[C@@H](Cc1ccccc1)C(=O)N[C@H]1c2ccccc2OC[C@H]1O | 7.38 | 1000 |  |  |  | 
Cc1cccc(C)c1CNC(=O)[C@H]1N(C(=O)[C@@H](O)C[C@@H](Cc2ccccc2)C(=O)N[C@H]2c3ccccc3OC[C@H]2O)CCC1(C)C | 9.85 | 15 | 31 | 500 | 9.40 | 8.80
Cc1cccc(C)c1CNC(=O)[C@H]1N(C(=O)[C@@H](O)C[C@@H](Cc2ccccc2)C(=O)N[C@H]2c3ccccc3OC[C@H]2O)COC12CCCC2 | 10.00 | 8 | 62 | 125 | 9.30 | 
CC(C)(C)NC(=O)[C@@H]1CN(Cc2cccnc2)CCN1C[C@@H](O)CC(Cc1ccccc1)C(=O)N[C@H]1c2ccccc2C[C@H]1O (single isomer, unassigned) |  | 45 | 890 | 1000 | 7.36 | 7.21
